Patent US20090305954A1, “HISTIDINE-CONTAINING DIASTEREOMERIC PEPTIDES AND USES THEREOF” (Yeda Research and Development Co. Ltd., priority 2005, published 2009)
Converted amounts (≈) assume the structure as drawn. Square brackets hold non-standard residues; d marks the D form. Peptide text beside a SMILES is read from it.

Experiments:
22RV1 human PC cells = assay: XTT proliferation (cytotoxicity) assay, 22RV1; assay type: cell-based
Procedure: (§1) The CL1 human prostate carcinoma (PC) cell line is an androgen-independent (AI) subclone of LNCaP cell line, which was generated by culturing androgen-dependent (AD) LNCaP cells in charcoal-stripped, […], as described (Patel et al. 2000). 22RV1 human PC cells are AI sub-clones of the AD prostatic adenocarcinoma CWR22 xenograft (Sramkoski et al. 1999). CL1 and 22RV1 (ATCC, USA) were grown in RPMI-1640 supplemented with 10% FCS (Biological Industries, Beit Haemek, Israel). PC3 and DU145 are androgen-insensitive (AI) (non-responsive), invasive human prostate cancer cell lines. NIH-3T3 mouse fibroblast cell lines (ATCC, USA) were grown in DMEM supplemented with 10% BS. Murine Lewis lung carcinoma (LLC) cell lines were also grown in DMEM medium supplemented with 10% fetal calf serum and antibiotics under the same conditions as above.
(§2) A 96-well plate (Falcon) was used for the XTT proliferation assay. Cancer cells were grown for 24 hours (day 1) in RPMI-1640 medium ([…] cells/100 μl for LLC, CL1, 22RVI, DU 145 and PC3, respectively) supplemented with 10% fetal calf serum and antibiotics, at 37° C., in humidified atmosphere at 5% CO2 and 95% air, resulting in growth medium pH of 7.4. NIH-3T3 fibroblast cells (1×10^4 cells/100 μl) were grown in DMEM medium supplemented with 10% bovine calf serum and antibiotics under the same conditions as described above for the cancerous cells. Wells in the last two rows served as blanks (medium only, for measuring the background color of the medium) and 100% survival controls (cells and medium only without treatment), respectively.
(§3) In day 2, the peptides were dissolved in sterile PBS to a concentration of 200 μM (or 500 μM). The medium in the assay wells was replaced with 100 μl serum free medium. For the assays at pH 6, the medium was initially concentrated (×5 or ×10) and then diluted with double distilled water and addition of sodium carbonate. Before reaching the correct dilution, the medium was adjusted to pH 6 and then more water was added to reach the final dilution. The cells were grown in physiological pH, and the acidic pH was used only during the 24 hours incubation with the peptides. A sign for the correct acidity was a light yellow color of the medium. In line A of the plate, 160 μl of serum free medium was added, if the initial peptide concentration was 500 μM.
(§4) Peptide solutions, 100 μl (or 40 μl) were added to each assay well in line A, such that the final concentration of the peptide was […] and the volume 200 μl. The medium in the wells was mixed with multichannel pipette 5 times and 100 μl of it were transferred to the next row of wells (line B), to give a peptide concentration of 50 μM. The double dilution of the peptides continued downstream the plate in the same manner. The plates were then incubated for 24 h.
(§5) In day 3, XTT reaction solution was prepared by adding to 100 μl aliquots of activation solution (sodium 3′-[1-(phenyl-aminocarbonyl)-3,4-tetrazolium]-bis(4-methoxy-6-nitro) benzene sulfonic acid hydrate and N-methyl dibenzopyrazine methyl sulfate; mixed in a proportion of 50:1) (protected from light and kept in −20° C.), the substrate. 50 μl of XTT reaction solution were added to each well and the plates were incubated for 2 hours (37° C. and 5% CO2+95% air. In cases the incubation was not enough for the creation of the color, it was extended for up to 24 hours). The optical density was read at wavelength of 450 nm in an ELISA plate reader. Cell viability was determined relative to the control and final results were recorded. The results were confirmed using replications in at least three independent experiments. The LC50 for each peptide was obtained from the curve of cell viability versus concentration of peptide and taken from the concentration at which cell viability was 50%. The data shown in Table 1 are for only one experiment, but representative of all replications.

[1] = test system: NIH-3T3 normal mouse fibroblasts cell line; assay: XTT proliferation (cytotoxicity) assay, normal fibroblasts; assay type: cell-based; conditions: NIH3T3, pH 7.4, 24 h
Procedure: as §1
(§6) The anticancer activity of the diastereomers 1, 5 and 11-16, 36-39, 42 and 44 was examined against human CL1 prostate cancer, murine LLC (Lewis lung carcinoma), DU 145 and PC3 cell lines. The cell selectivity of the diastereomeric peptides was also studied by examining their effect on NIH-3T3 normal mouse fibroblasts cell line.
as §2, §3, §4
as §5, with “The LC50 for each peptide was obtained from the curve of cell viability versus concentration of peptide and taken from the concentration at which cell viability was 50%. The data shown in Table 1 are for only one experiment, but representative of all replications.” left out

[2] = as above; assay type: cell-based, mouse; conditions: mouse, NIH-3T3 normal mouse fibroblasts; NIH3T3, pH 6, 24 h; read-out: Lethal Concentration (LC50)
Procedure: as §1, §6, §2, §3, §4
as §5, with “The LC50 for each peptide was obtained from the curve of cell viability versus concentration of peptide and taken from the concentration at which cell viability was 50%. The data shown in Table 1 are for only one experiment, but representative of all replications.” left out

[3] = test system: DU145 human prostate cancer cell line; assay: XTT proliferation (cytotoxicity) assay, DU145; assay type: cell-based
Procedure: as §1, §6, §2, §3, §4
as §5, with “The LC50 for each peptide was obtained from the curve of cell viability versus concentration of peptide and taken from the concentration at which cell viability was 50%. The data shown in Table 1 are for only one experiment, but representative of all replications.” left out

[4] = test system: Murine Lewis lung carcinoma (LLC) cell line; assay: XTT proliferation (cytotoxicity) assay, LLC; assay type: cell-based
Procedure: as §1, §6, §2, §3, §4
as §5, with “The LC50 for each peptide was obtained from the curve of cell viability versus concentration of peptide and taken from the concentration at which cell viability was 50%. The data shown in Table 1 are for only one experiment, but representative of all replications.” left out

[5] = test system: PC3 human prostate cancer cell line; assay: XTT proliferation (cytotoxicity) assay, PC3; assay type: cell-based; conditions: PC3, pH 7.4, 24 h
Procedure: as §1, §6
A 96-well plate (Falcon) was used for the XTT proliferation assay. Cancer cells were grown for 24 hours (day 1) in RPMI-1640 medium (5×10^3, 7×10^3, 1×10^4 and 7×10^3 cells/100 μl for LLC, CL1, 22RVI, DU 145 and PC3, respectively) supplemented with 10% fetal calf serum and antibiotics, at 37° C., in humidified atmosphere at 5% CO2 and 95% air, resulting in growth medium pH of 7.4. […]
In day 3, XTT reaction solution was prepared by adding to 100 μl aliquots of activation solution (sodium 3′-[1-(phenyl-aminocarbonyl)-3,4-tetrazolium]-bis(4-methoxy-6-nitro) benzene sulfonic acid hydrate and N-methyl dibenzopyrazine methyl sulfate; mixed in a proportion of 50:1) (protected from light and kept in −20° C.), the substrate. […] The optical density was read at wavelength of 450 nm in an ELISA plate reader. Cell viability was determined relative to the control and final results were recorded. […]

[6] = test system: pepsin, trypsin, and elastase; assay: Resistance to proteolytic digestion (reverse-phase HPLC); assay type: in vitro ADME; conditions: after 2 hr, 140 μM peptide, 25 μM protease, 37° C.
Procedure: In order to reach their target, the diastereomers have to withstand proteolytic digestion of proteases, which may occur after their administration and during the time until they reach the target site. The susceptibility of the peptides 13 and 14 to proteolytic digestion by pepsin (from porcine stomach mucosa, Sigma), trypsin (from bovine pancreas, Sigma), and elastase (from human leukocytes, Sigma) was assessed by reverse-phase HPLC. As a negative control, the all L-amino acid analog peptides were used. Equal amounts of the peptides were dissolved in PBS (35 mM phosphate buffer/0.15 M NaCl, pH 7.3) at a final concentration of 140 μM, to which 25 μM of protease were added. […] After the addition of the appropriate protease inhibitor to stop the reaction, aliquots were injected to C18 column and the amounts of the intact peptides 13 and 14 and their all L analogs were evaluated using their absorbance at 215 nm.

[7] = test system: CL1 human prostate carcinoma cell line; assay: XTT proliferation (cytotoxicity) assay, CL1; assay type: cell-based
Procedure: as §1, §6, §2, §3, §4
as §5, with “The LC50 for each peptide was obtained from the curve of cell viability versus concentration of peptide and taken from the concentration at which cell viability was 50%. The data shown in Table 1 are for only one experiment, but representative of all replications.” left out

CC(C)C[C@H](NC(=O)[C@H](CC(C)C)NC(=O)[C@@H](CCCCN)NC(=O)[C@H](CC(C)C)NC(=O)[C@H](CC(C)C)NC(=O)[C@H](Cc1c[nH]cn1)NC(=O)[C@@H](CCCCN)NC(=O)[C@@H](CC(C)C)NC(=O)[C@H](CC(C)C)NC(=O)[C@@H](CCCCN)NC(=O)[C@H](Cc1c[nH]cn1)NC(=O)[C@H](CC(C)C)NC(=O)[C@@H](CC(C)C)NC(=O)[C@H](Cc1c[nH]cn1)NC(=O)[C@@H](N)CC(C)C)C(N)=O [Peptide 14] (H-LH[dL]LH[dK]L[dL][dK]HLL[dK]LL-NH2)
Lethal Concentration (LC50) (22RV1 human PC cells; 22RV1, pH 6, 24 h): 12.5 µg/mL | Lethal Concentration (LC50) (22RV1 human PC cells; 22RV1, pH 7.4, 24 h): 25 µg/mL | Lethal Concentration (LC50) [1]: 100 µg/mL | CC50 at 24 h [2]: 25 µg/mL (≈ 13.7 µM) | Lethal Concentration (LC50) ([3]; DU145, pH 6, 24 h): 9.3 µg/mL | Lethal Concentration (LC50) ([3]; DU145, pH 7.4, 24 h): 12.5 µg/mL | Lethal Concentration (LC50) ([4]; pH 6, 24 h): 25 µg/mL | Lethal Concentration (LC50) ([4]; pH 7.4, 24 h): 50 µg/mL | Lethal Concentration (LC50) [5]: 18.7 µg/mL | proteases digestion [6]: ~50% | Lethal Concentration (LC50) ([7]; CL1, pH 6, 24 h): 12.5 µg/mL | Lethal Concentration (LC50) ([7]; CL1, pH 7.4, 24 h): 12.5 µg/mL | activity compared with peptide 1 ([7]; CL1 and 22RVI, pH 7.4): half as active | active concentration lower than against NIH-3T3 ([7]; CL1 vs NIH-3T3, pH 7.4): 8 fold | active concentration lower than against NIH-3T3 ([7]; CL1 vs NIH-3T3 at the same pH): at least two-fold lower
